Source: PMC8466420, “Inflammatory and Cytotoxic Activities of Abietane Terpenoids from Nepeta bracteata Benth” (Molecules, 2021)
One block for each compound: values may come before it.

Experiments:
Format in all cases: cell-based
[1] = test system: HCT-8 cells; assay: Cytotoxicity test against HCT-8 cells (MTT); conditions: 24 h, means ± SD (n = 3), read-out: IC50 (μM) HCT-8 (cytotoxic activity)
Procedure: (§1) The cytotoxic activities of compounds 1–10 against HCT-8 cells were tested using the MTT colorimetric method. HCT-8 cells were cultivated on DMEM medium at 37 °C and 5% CO2. After diluting the DMEM medium, cells were seeded into 96-well sterile microplates (6 × 10^4 cells/well) and cultured with a series of various concentrations of tested compounds or adriamycin (positive control) for 24 h at 37 °C. After incubation, all compounds were tested at five concentrations (10−100 μM) for 1 h. Following this, the supernatant was removed, and all components were dissolved in 100% DMSO, at such an amount that there was a final DMSO concentration of 0.1% added to each well. The absorbance was measured using a microplate reader at a wavelength of 570 nm. […] The cell growth assay was repeated three times, and the IC50 values were calculated using Microsoft Excel software.

[2] = test system: RAW 264.7 macrophages; assay: RAW 264.7 macrophage viability test (MTT); conditions: compounds at 50 μM; for viability at 50 µM: Mus musculus, RAW264.7, 24 h, read-out: Cell Survival Rate (%) RAW 264.7 Macrophages
Procedure: The MTT colorimetric method was used to detect the effect of compounds 1–10 on the viability of RAW 264.7 macrophages. The RAW 264. 7 macrophages in the logarithmic growth phase were digested with trypsin to prepare a single-cell suspension, which was seeded in a 96-well plate at a density of 1 × 10^4 cells per well and cultured in a 5% CO2 incubator for 24 h at 37 °C, before discarding the supernatant. The blank control group was cultured with 10% FBS-containing DMEM, and the drug group was treated with aqueous solutions of compounds 1–10, with six replicate wells for each concentration. Incubation was continued in 5% CO2 at 37 °C. After 24 h of incubation, 10 μL of 5 mg/mL MTT was added to each well. The culture solution was removed after culturing for 4 h. Then, 100 μL of DMSO was added to each well, before shaking for 10 min to achieve complete dissolution. The optical density (OD) was measured at 492 nm using a microplate reader to calculate cell viability.

[3] = test system: nitric oxide (NO) production in lipopolysaccharide (LPS)-stimulated RAW 264.7 cells; assay: Anti-inflammation assay: inhibition of NO production in LPS-stimulated RAW 264.7 macrophages; conditions: means ± SD of triplicate experiments
Procedure: The anti-inflammatory activity of the isolated compounds was evaluated in lipopolysaccharide-stimulated RAW 264.7 macrophages using the […]. The RAW 264.7 macrophages were seeded in 96-well plates at a density of 1 × 10^4 cells per well for 24 h, followed by treatment with different extracts of identical purity for another 24 h. The compounds were dissolved in dimethyl sulfoxide (DMSO) and diluted appropriately just before cell treatments. Cells were incubated with the extract at indicated concentrations, with DMSO not exceeding 0.1% in all experiments. The cells were cultured in DMEM with 10% FBS and antibiotics (100 U/mL penicillin and 100 µg/mL streptomycin) at 37 °C with 5% CO2. […].

[4] = Cytotoxicity test against HCT-8 cells (MTT); conditions: human, means ± SD (n = 3), read-out: IC50 (μM) HCT-8 (cytotoxic activity)
Procedure: as §1

[5] = Mus musculus, RAW264.7, 24 h treatment

Compound: 1-phenanthrenecarboxylic acid [Compound 8]
IC50 [1]: > 50 µM
Cell Survival Rate (%) RAW 264.7 Macrophages ([2]; 24 h): 99.12 ± 0.28%
IC50 ([3]; 24 h treatment): 37.5 ± 0.92 µM

Compound: COc1cccc2c1C(=O)c1c(O)c3c(c(O)c1C2=O)C[C@@](O)(C(=O)CO)C[C@@H]3O[C@H]1C[C@H](N)[C@H](O)[C@H](C)O1 [Adriamycin, reference compound]
IC50 at 24 h [4]: 1.78 ± 0.14 µM

Compound: CC(=O)O[C@H]1CCC(C)(C)[C@@H]2CCc3cc(C(C)C)ccc3[C@@]12CO [Compound 1, nepetabrate A]
IC50 at 24 h [4]: > 50 µM
viability at 50 µM [2]: 97.93 ± 0.26%
IC50 [3, 5]: 38.2 ± 1.15 µM

Compound: CC(C)c1ccc2c(c1)[C@@H](O)C[C@H]1[C@@](C)(C(=O)O)CCC[C@]21C [Compound 7, 7a-hydroxycallitrisic acid]
IC50 at 24 h [4]: > 50 µM
viability at 50 µM [2]: 98.75 ± 0.45%
IC50 [3, 5]: 37.1 ± 0.81 µM

Compound: CC(=O)c1ccc2c(c1)CC[C@H]1[C@@](C)(C(=O)O)CCC[C@]21C [Compound 9, angustanoic acid G]
IC50 at 24 h [4]: > 50 µM
viability at 50 µM [2]: 98.26 ± 0.18%
IC50 [3, 5]: 42.3 ± 0.56 µM

Compound: CC(C)c1ccc2c(c1)CC[C@@H]1[C@](C)(CCC[C@]1(C)C(=O)O)O2 [Compound 10, jiadifenoic acid K]
IC50 at 24 h [4]: > 50 µM
viability at 50 µM [2]: 98.75 ± 0.2%
IC50 [3, 5]: 46.3 ± 1.02 µM

Now from value to compound, other results behind:

IC50 [3, 5]: 15.9 ± 0.38 µM
Compound: CC(=O)Oc1ccccc1C(=O)O [Aspirin, reference compound]

IC50 [3, 5]: 19.2 ± 1.25 µM
Compound: CC(C)c1ccc2c(c1)[C@@H](O)C[C@H]1[C@@](C)(C=O)CCC[C@]21C [Compound 2, nepetabrate B]
IC50 at 24 h [4]: 36.3 ± 1.1 µM
viability at 50 µM [2]: 88.26 ± 0.32%

IC50 [3, 5]: 22.3 ± 1.26 µM
Compound: CC1=C(CO)[C@@H]2C[C@H](O)c3cc(C(C)C)ccc3[C@@]2(C)CC1 [Compound 3, nepetabrate C]
IC50 at 24 h [4]: > 50 µM
viability at 50 µM [2]: 99.84 ± 0.21%

IC50 [3, 5]: 18.8 ± 0.75 µM
Compound: C=C1[C@@H]2C[C@H](O)c3cc(C(C)C)ccc3[C@@]2(C)CC[C@@]1(C)O [Compound 4, nepetabrate D]
IC50 at 24 h [4]: 41.4 ± 0.91 µM
viability at 50 µM [2]: 92.21 ± 0.19%

IC50 [3, 5]: 18 ± 1.13 µM
Compound: CC1CC(=O)OCCNC1=O (centres unmarked) [Compound 5, 6-methyl-1,4-oxazocane-5,8-dione]
IC50 at 24 h [4]: > 50 µM
viability at 50 µM [2]: 99.21 ± 0.15%

IC50 [3, 5]: 36.2 ± 1.21 µM
Compound: CC(C)(O)c1ccc2c(c1)CC[C@H]1[C@@](C)(C(=O)O)CCC[C@]21C [Compound 6, angustanoic acid F]
IC50 at 24 h [4]: > 50 µM
viability at 50 µM [2]: 99.89 ± 0.13%
